From ChEMBL document CHEMBL1156829 (Proc Natl Acad Sci U S A, 2008)

Experiments:
[1] = system: Plasmodium falciparum; test: NOVARTIS: Inhibition of Plasmodium falciparum 3D7 (drug-susceptible) proliferation in erythrocyte-based infection assay; format: functional, organism-based; details: Plasmodium falciparum, 3D7
[2] = system: Plasmodium falciparum; test: NOVARTIS: Inhibition of Plasmodium falciparum W2 (drug-resistant) proliferation in erythrocyte-based infection assay; format: functional, organism-based
[3] = NOVARTIS: Cytotoxicity against human hepatocellular carcinoma cell line (Huh7); format: toxicity, cell-based, Huh-7; details: Huh7 cells (hepatocellular carcinoma cell line)
[4] = Plasmodium falciparum, W2, read-out: EC50

CC1CC(C)CN(C(=O)c2sc3ccccc3c2Cl)C1 (configuration not stated)
EC50 [1]: 35.7 nM | EC50 [2, 4]: 64.5 nM | CC50 [3]: > 100000 nM

CCOC(=O)c1cnc2c(C)cc(C)cc2c1Nc1ccc(OC)c(OC)c1
EC50 [1]: 1780 nM | EC50 [2, 4]: 583 nM | CC50 [3]: > 100000 nM

COc1ccccc1Cc1nc2ccccc2nc1SCC(=O)Nc1cccc(C(F)(F)F)c1
EC50 [1]: > 5520 nM | EC50 [2, 4]: > 8340 nM | CC50 [3]: > 100000 nM

CN(CCCNc1ccnc2cc(Cl)ccc12)C(=O)C(Cl)Cl
EC50 [1]: 28.6 nM | EC50 [2, 4]: 91.4 nM | CC50 [3]: > 14000 nM

COc1ccccc1/C=C/CN(CCN1CCN(S(=O)(=O)c2cccc(C(F)(F)F)c2)CC1)C(=O)Cc1ccccc1
EC50 [1]: 1320 nM | EC50 [2, 4]: > 1250 nM | CC50 [3]: > 10000 nM

Cc1cccc(NC(=O)/C(C#N)=C/c2ccc(C)o2)c1
EC50 [1]: > 1250 nM | EC50 [2, 4]: > 934 nM | CC50 [3]: > 10000 nM

COc1cc(-c2nc(-c3ccc(C)c(C)c3)c(-c3ccc(C)c(C)c3)[nH]2)cc(OC)c1O
EC50 [1]: 93 nM | EC50 [2, 4]: 132 nM | CC50 [3]: 61200 nM

COc1cc2c(Nc3ccc(Br)cc3F)ncnc2cc1OCC1CCN(C)CC1 [VANDETANIB]
EC50 [1]: 1920 nM | EC50 [2, 4]: 1600 nM | CC50 [3]: 37200 nM

CCOC(=O)C1=C(C)NC2=C(C(=O)CC(c3ccc(OC)c(OC)c3)C2)C1c1cccc(C)c1 (configuration not stated)
EC50 [1]: 236 nM | EC50 [2, 4]: 57.2 nM | CC50 [3]: > 100000 nM

COC(=O)C(Nc1ccc(Cl)c(Cl)c1)(c1cc(C)c(O)c(C)c1)C(F)(F)F (configuration not stated)
EC50 [1]: > 1390 nM | EC50 [2, 4]: > 789 nM | CC50 [3]: > 10000 nM

COc1cc(OC)nc(C(Sc2ccc(NC(=O)c3cccs3)cc2)c2ccccc2)n1 (configuration not stated)
EC50 [1]: 175 nM | EC50 [2, 4]: 224 nM | CC50 [3]: > 10000 nM

CN1CCN(c2nc(NN=Cc3cc(I)ccc3O)nc(Nc3ccc([N+](=O)[O-])cc3)n2)CC1
EC50 [1]: 383 nM | EC50 [2, 4]: 316 nM | CC50 [3]: 47700 nM

Oc1ccc(Br)cc1C=NNc1nc2ccccc2[nH]1
EC50 [1]: 536 nM | EC50 [2, 4]: 504 nM | CC50 [3]: 54000 nM

COc1cc2nc(NCCCOC(C)C)n3nc(-c4ccccc4)nc3c2cc1OC
EC50 [1]: 793 nM | EC50 [2, 4]: 1210 nM | CC50 [3]: > 100000 nM

CCC(Cc1cnc2nc(N)nc(N)c2n1)c1ccc(C(=O)N[C@@H](CCC(=O)O)C(=O)O)cc1 (some centres not stated) [EDATREXATE]
EC50 [1]: 14.8 nM | EC50 [2, 4]: 108 nM | CC50 [3]: 30.4 nM

Cc1ccc(-c2nnc(SCCCC(=O)NC(Cc3ccccc3)c3ccccc3)n2-c2cccc(Cl)c2)cc1 (configuration not stated)
EC50 [1]: > 12500 nM | EC50 [2, 4]: 621 nM | CC50 [3]: > 27600 nM

O=[N+]([O-])c1ccc(C=NNc2nc(Nc3ccccc3)nc(Nc3ccccc3)n2)o1
EC50 [1]: 625 nM | EC50 [2, 4]: 454 nM | CC50 [3]: 20700 nM

CCN(CC)CCCNC(=S)N(CCc1cccc(C)c1)Cc1cc2cc(OC)c(OC)cc2[nH]c1=O
EC50 [1]: 2430 nM | EC50 [2, 4]: 747 nM | CC50 [3]: 18600 nM

CCOC(=O)N1CCN(C(=O)C(=O)NNC(=O)COc2ccc(Cl)cc2Br)CC1
EC50 [1]: > 1250 nM | EC50 [2, 4]: 769 nM | CC50 [3]: > 10000 nM

CC1(C)Cc2c(sc(NC(=O)CCl)c2C#N)CO1
EC50 [1]: 2040 nM | EC50 [2, 4]: 2080 nM | CC50 [3]: 20500 nM

CCCCCCc1cc2cc(-c3nc4ccccc4[nH]3)c(=Nc3ccccc3C)oc2cc1O
EC50 [1]: 2120 nM | EC50 [2]: No fit | CC50 [3]: > 100000 nM

COc1cc(NC(C)CCCN(Cc2ccc(OC)c(OC)c2)C(=O)c2ccccc2)c2ncccc2c1 (configuration not stated)
EC50 [1]: 529 nM | EC50 [2, 4]: 103 nM | CC50 [3]: > 10000 nM

c1ccc(-c2ccc(-c3ccccn3)nc2)nc1
EC50 [1]: 287 nM | EC50 [2, 4]: 141 nM | CC50 [3]: 360 nM

CN(C)c1nnc(C(C#N)=Cc2cc(C(=O)c3cccc(Cl)c3)cn2C)o1
EC50 [1]: > 12500 nM | EC50 [2, 4]: 1030 nM | CC50 [3]: > 100000 nM

CCC(C)(C)c1ccc(OCCCC[n+]2cccc(C)c2C)c(C(C)(C)CC)c1
EC50 [1]: 495 nM | EC50 [2, 4]: 430 nM | CC50 [3]: 15200 nM

CCCCCCCn1c2c(c(=N)c3ccccc31)CCC2
EC50 [1]: 277 nM | EC50 [2, 4]: 231 nM | CC50 [3]: 3860 nM

CC(C)CNc1nc(NCCCN2CCCC2)ncc1C(=O)NCc1ccccc1
EC50 [1]: 664 nM | EC50 [2, 4]: > 1230 nM | CC50 [3]: > 10000 nM

Fc1ccc(CSc2ccc3nnc(-c4cccnc4)n3n2)cc1
EC50 [1]: > 1250 nM | EC50 [2, 4]: > 937 nM | CC50 [3]: > 10000 nM

COC(=O)[C@]1(C)CC[C@]2(C)CC[C@]3(C)C4=CC=C5C(=CC(=O)C(O)=C5C)[C@]4(C)CC[C@@]3(C)[C@@H]2C1 [PRISTIMERIN]
EC50 [1]: > 1250 nM | EC50 [2, 4]: > 820 nM | CC50 [3]: > 6250 nM

N=c1c2c(n(Cc3ccc(Cl)c(Cl)c3)c3c1CCC3)CCCC2
EC50 [1]: 503 nM | EC50 [2, 4]: 506 nM | CC50 [3]: > 10000 nM

Oc1ccc(Br)cc1CN1CCN(c2ccccn2)CC1
EC50 [1]: 3170 nM | EC50 [2, 4]: 438 nM | CC50 [3]: 34600 nM

CC12CN(Cc3ccccc3)CC(C)(CN(Cc3cccc(Br)c3)C1)C2
EC50 [1]: 3620 nM | EC50 [2, 4]: 819 nM | CC50 [3]: 47200 nM

O=C(CSc1nc2ccccc2[nH]1)Nc1ccc2c(c1)OCO2
EC50 [1]: > 1250 nM | EC50 [2, 4]: > 1040 nM | CC50 [3]: > 10000 nM

O=C(NCc1cccs1)c1ccc(OC2CCN(CC3CCCCC3)CC2)c(Cl)c1
EC50 [1]: 719 nM | EC50 [2, 4]: 44.6 nM | CC50 [3]: > 10000 nM
